Reference: US7772225B2, “N-sulfamoyl-piperidineamides for the treatment or inhibition of obesity and related conditions” (Solvay Pharmaceuticals GmbH, priority 2005, dated 2010)

What was measured:
[1] = target: T1, human carbonic anhydrase isoenzyme II (hCA II) (Homo sapiens, UniProt P00918); test: In vitro inhibition of human carbonic anhydrase isoenzyme II (hCA II), dansylamide fluorescence; assay type: binding; conditions: hCA II from erythrocytes 10^-7 M/L, read at 60 min 37° C., single measurements, read-out: IC50 (hCA II inhibiting effect in vitro)
T1 construct: human carbonic anhydrase isoenzyme II from erythrocytes (Sigma-Aldrich); purchased Sigma-Aldrich; host or cells: human erythrocytes (natural source)
Protocol: 1. In Vitro Inhibition of Human Carbonic Anhydrase Isoenzyme II (hCA II)
The test compounds of Formula I in 96 well microplates were diluted with aqua bidest by using an automatic pipettor (CyBiWell®). From the different dilution plates, aliquots of 20 μl were transferred to the 96 well black assay plates with a pipetting station (Tecan Genesis®). In a second step, 148 μl of potassium phosphate buffer (20 mM, pH 7.4) was added, and as a third step, 20 μl of enzyme solution (1 μM human carbonic anhydrase isoenzyme II from erythrocytes (Sigma-Aldrich), dissolved in potassium phosphate buffer) incubated for 60 min at room temperature and the fluorescence signal (Tecan Ultra® fluorescence reader; excitation wavelength: 280 nm; emission wavelength: 465 nm) read at the end of the preincubation period (FLU-1). After the preincubation time, 20 μl of aqueous dansylamide solution (1 mM dansylamide (Sigma-Aldrich), dissolved in hydrochloric acid) were added and the fluorescence signal read every 10 min for a period of 60 min at 37° C. For calculation, the fluorescence data of the time point 60 min (FLU-2) were used. The total volume of assay mixture amounted to 208 μl. The final concentration of carbonic anhydrase II was 10^−7 M/L, of dansylamide 2.25×10^−6 and of compounds from 10^−8 M/L up to 10^−5 M/L. Final concentration of DMSO as compound solvent was 0.1 mM. […]

C57B1/6 mice = test: Acute in vivo food intake test in mice; conditions: 24 h food intake, 100 mg/kg/day oral gavage in two half doses, high caloric diet, male or female mice
Protocol: 2. Acute In Vivo Food Intake Test in Mice
The studies were carried out in male or female C57B1/6 mice (n=8-12 per group). The mice were kept on an inverted 12/12h light/dark cycle (lights on 22:00). They were allowed food (high caloric diet) and water ad libitum. Food intake and water consumption was measured daily. The test compound of Formula I was suspended in 1% methylcellulose in water and 2% (v/v) of Poloxamer 188 (Lutrol F68®) and administered by oral gavage at a dose of 100 mg/kg/day. One half of the dose was administered at 7.00-9.00 h; the remaining half of the dose was administered between 15.00-15.30 h.
In the test model described above, the test substances caused a decrease of the animals' 24 h food intake to the percentages of food intake when compared to control as given in the following Table 2.

SMILES	IC50 [1]	further results
NS(=O)(=O)N1CCC(N(Cc2ccccc2)C(=O)Nc2ccccc2)CC1 [Example 28]	6.6 µM	–
NS(=O)(=O)N1CCC(NC(=O)Nc2ccc(F)cc2)CC1 [Example 1, 4-{[[(4fluorophenyl)amino]-carbonyl]amino}piperidine-1-sulfonamide]	–	food intake [% of control] (C57B1/6 mice): 83 % of control
NS(=O)(=O)N1CCC(N(C(=O)Nc2ccc(C(F)(F)F)cc2)c2cccnc2)CC1	–	melting point: 188 to 191 °C
NS(=O)(=O)N1CCC(n2c(=O)[nH]c3ccccc32)CC1 [Example 10]	7.3 µM	–
